From patent US20250170248A1, “SMARCA DEGRADERS AND USES THEREOF” (Kymera Therapeutics, Inc., priority 2021, published 2025)

Legend:
Assay type in all cases: cell-based
[1] = biological target: T1, SMARCA2 (Homo sapiens, UniProt P51531); experiment: MSD SMARCA2 degradation in A549 cell line; details: for Dmax: A549, A549 cells; for Dmax / DC50: 24 h; for DC50: read-out: SMARCA2 MSD A549 degradation 24 h: Average external-Abs DC50
Description: Example 10. MSD SMARCA2 Degradation in A549 Cell Line
Cells were seeded into 96-well plates (A549 cells: 2×10^4 cells/well/100 ul media) and incubated overnight. The next day, 200 nL compound were added into the intermediate plate with Echo (Labcyte 550) from source plate containing a 3-fold serial dilution from top concentration of 1 mM. The culture medium was changed with 8 0ul of fresh medium and 80 μL of 2× compound solution was added into the well to make a final concentration of 1000 nM, 333.3 nM, 111.1 nM, 37.04 nM, 12.35 nM, 4.115 nM, 1.372 nM, 0.457 nM, 0.152 nM and 0 nM (DMSO). The wells were mixed and then incubated for 24 hours. The media was aspirated from the cultures and 60 ul pre-chilled PIPA lysis buffer (Boston BioProducts BP-115D) with protease/phosphatase inhibitor (Roche 05892791001/Roche 04906837001) was added into the well to lyze the cells for 20 minutes at 4° C. The MSD plate (L15XA) was coated with 40 uL cell lysate and incubated at 4° C. overnight. The next day, the plate was washed three times with TBST (CST #9997S), 150 ul/well. The MSD plates was blocked with 150 ul blocking buffer per well and shaked for 1 hr at RT, 600 rpm. The blocking buffer was 3% Blocker A (MSD, R93BA-4) in TBST. The MSD plate was washed three times with 150 uL/well of TBST and 25 ul/well of detection antibody (Rabbit anti-SMARCA2/BRM antibody, 100 μg/mL, ab223735) was added at final concentration of 1 μg/mL diluted in 1% Blocking buffer and shaken for 1 hour at RT, 600 rpm. The MSD plate was washed three times with 150 ul/well of TBST and 25 ul/well of SULFO-TAG anti-rabbit antibody (MSD, R32AB-1) was added at final concentration of 1 μg/ml diluted in 1% Blocking buffer and shaken for 1 hour at RT, 600 rpm. The MSD plate was washed three times with 150 uL/well of TBST and 150 ul/well of 2× MSD reading buffer diluted from 4× (MSD, R92TC-2) with water was added. Lastly, the MSD instrument was read.
The letter codes for SMARCA2 degradation potency (DC50) include: A (<10 nM), B (10-50 nM), C (>50-100 nM), and D (>100 nM). The letter codes for the percentage of SMARCA degradation after 24 hours (Dmax %) include: A (>90% degradation), B (>70-90% degradation), C (50-70% degradation), and D (<50% degradation).

[2] = biological target: T2, SMARCA4 (Homo sapiens, UniProt P51532); experiment: SMARCA4 Western blot degradation in MV4-11 cells; details: 24 h; for Dmax: MV4-11, MV4-11 cells, read-out: SMARCA4 MSD MV411 degradation 24 h: average Dmax %; for DC50: MV4-11 cells, read-out: SMARCA4 MSD MV411 degradation 24 h: Mean external-Abs DC50
T2 construct: SMARCA2/SMARCA4 protein degradation selectivity in MV4-11 cells; endogenous in cells; host or cells: MV4-11
T2 sequence (P51532 whole entry): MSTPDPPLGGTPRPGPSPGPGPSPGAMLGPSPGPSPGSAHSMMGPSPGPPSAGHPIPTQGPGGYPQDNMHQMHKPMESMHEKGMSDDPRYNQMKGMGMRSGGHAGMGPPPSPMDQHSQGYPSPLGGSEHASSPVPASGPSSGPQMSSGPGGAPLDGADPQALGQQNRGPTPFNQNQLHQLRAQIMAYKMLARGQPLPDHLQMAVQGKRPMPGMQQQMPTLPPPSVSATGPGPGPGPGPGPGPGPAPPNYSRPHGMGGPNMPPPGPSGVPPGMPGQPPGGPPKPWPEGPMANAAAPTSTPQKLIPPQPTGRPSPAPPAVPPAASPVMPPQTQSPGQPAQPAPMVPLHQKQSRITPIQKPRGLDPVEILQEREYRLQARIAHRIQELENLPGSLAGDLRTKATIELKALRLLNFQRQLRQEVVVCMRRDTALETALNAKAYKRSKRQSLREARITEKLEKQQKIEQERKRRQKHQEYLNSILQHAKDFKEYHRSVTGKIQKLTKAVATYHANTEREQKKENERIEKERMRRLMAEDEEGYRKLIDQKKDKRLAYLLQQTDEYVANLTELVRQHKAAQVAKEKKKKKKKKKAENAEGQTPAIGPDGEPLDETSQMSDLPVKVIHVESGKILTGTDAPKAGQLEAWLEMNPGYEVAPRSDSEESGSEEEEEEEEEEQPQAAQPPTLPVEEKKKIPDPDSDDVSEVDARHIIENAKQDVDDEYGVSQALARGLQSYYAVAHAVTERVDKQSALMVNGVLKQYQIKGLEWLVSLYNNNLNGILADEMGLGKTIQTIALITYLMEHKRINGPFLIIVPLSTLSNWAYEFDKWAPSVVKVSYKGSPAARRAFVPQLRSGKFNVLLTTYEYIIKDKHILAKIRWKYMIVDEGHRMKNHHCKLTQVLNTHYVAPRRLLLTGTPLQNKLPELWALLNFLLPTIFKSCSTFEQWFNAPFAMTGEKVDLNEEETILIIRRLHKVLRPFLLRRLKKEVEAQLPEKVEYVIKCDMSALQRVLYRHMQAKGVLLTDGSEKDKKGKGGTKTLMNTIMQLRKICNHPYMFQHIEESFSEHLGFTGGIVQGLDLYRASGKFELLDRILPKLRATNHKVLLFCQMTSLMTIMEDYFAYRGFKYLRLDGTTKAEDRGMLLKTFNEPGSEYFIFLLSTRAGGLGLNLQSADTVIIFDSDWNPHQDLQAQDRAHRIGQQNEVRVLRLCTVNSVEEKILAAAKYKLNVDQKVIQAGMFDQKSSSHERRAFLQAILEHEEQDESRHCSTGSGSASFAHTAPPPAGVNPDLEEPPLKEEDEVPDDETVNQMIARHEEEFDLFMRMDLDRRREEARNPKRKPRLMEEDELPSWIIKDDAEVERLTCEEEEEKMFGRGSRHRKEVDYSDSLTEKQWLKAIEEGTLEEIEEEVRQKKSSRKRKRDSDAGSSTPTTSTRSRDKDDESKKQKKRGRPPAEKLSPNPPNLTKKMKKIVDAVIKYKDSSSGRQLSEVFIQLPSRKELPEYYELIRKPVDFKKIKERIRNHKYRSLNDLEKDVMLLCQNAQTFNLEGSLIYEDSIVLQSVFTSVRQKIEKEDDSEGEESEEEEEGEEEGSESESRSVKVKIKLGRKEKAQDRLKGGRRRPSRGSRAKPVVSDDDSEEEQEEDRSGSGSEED
Description: Example 11. SMARCA2 and SMARCA4 Western Blot MV4-11 Degradation
Cells were seeded into 6-well plates (MV4-11:4×10^6 cells/well/1 ml) and 1 ml of 2× compound solution was added into the well to make the final concentration and the plates were mixed well and incubated for 24 hours (No cytotoxicity was observed). The cell were collected with media and spun at 3000 rpm for 5 minutes. The supernatant was aspirated and the well and the cells were washed with cold PBS once and combined for centrifugation again; the supernatant aspirated again. 200 uL pre-chilled RIPA lysis buffer (Boston BioProducts BP-115D) with protease/phosphatase inhibitor (Roche 05892791001/Roche 04906837001) was directly added into the tube to lyze the cells for 20 minutes on ice. The cell lysate were collected into EP tubes and spun at 13000 rpm for 20 minutes and 72 uL supernatant was transferred to a fresh EP tube containing 18 μL of 5× loading buffer (Beyotime Bio P0015) to make the loading samples. The samples were heated to 100° C. for 10 minutes and cooled to RT and microcentrifuged. 20 μL of samples were loaded onto SDS-PAGE gel (Novex, WG1402BOX) and the gel was run at 80 V for 20 minutes and 120 V for 1.5 hours. The samples were electrotransfer to a NC membrane using wet-transfer method with 250 mA for 2.5 hours. The membrane was blocked with LICOR blocking buffer (LI COR,927-50000) for 1 hour. The membrane was washed three times with TBST(CST #9997S), 5 minutes each. Incubation was performed with primary antibody prepared in blocking buffer with 0.1% Tween-20 (Solarbio, P8220) at 4° C. overnight (Anti-SMARCA2/BRM antibody (ab15597) 1:500; Anti-BRG1 antibody [EPR3912](ab108318) 1:1000; Rabbit anti-Bafl80 antibody [EPR15860](Abcam,ab196022) 1:1000; mouse anti-beta-Actin (8H10D10) (CST #3700) 1:10000). The membrane was washed three times with TBST, 5 minutes each. Incubation with secondary antibody was performed for 1 hour at RT (anti-rabbit IgG (Licor,926-32211) 1:5000; anti-mouse IgG (LI-COR, 926-68070) 1:5000). The membrane was washed three times with 5 minutes each and lastly the LiCOR was read.
The letter codes for SMARCA2/4 degradation potency (DC50) include: A (<1 nM), B (1-10 nM), C (>10-100 nM), and D (>100 nM). The letter codes for the percentage of SMARCA2/4 degradation after 24 hours (Dmax %) include: A (>90% degradation), B (>70-90% degradation), C (50-70% degradation), and D (<50% degradation). The letter codes of SMARCA2/4 selectivity include: A (>500 fold), B (>100-500 fold), C (10-100 fold), and D (<10 fold). Table 8. SMARCA2/4 Selectivity Results

[3] = biological target: T1, SMARCA2; experiment: SMARCA2 Western blot degradation in MV4-11 cells; parameters: SMARCA2/SMARCA4 protein degradation selectivity in MV4-11 cells; endogenous in cells; host or cells: MV4-11; details: for Dmax: MV4-11, MV4-11 cells, read-out: SMARCA2 MSD MV411 degradation 24 h: average Dmax %; for DC50: read-out: SMARCA2 MSD MV411 degradation 24 h: Mean external-Abs DC50; for Selectivity in MV411: SMARCA2/4 selectivity

T1 sequence (P51531 whole entry): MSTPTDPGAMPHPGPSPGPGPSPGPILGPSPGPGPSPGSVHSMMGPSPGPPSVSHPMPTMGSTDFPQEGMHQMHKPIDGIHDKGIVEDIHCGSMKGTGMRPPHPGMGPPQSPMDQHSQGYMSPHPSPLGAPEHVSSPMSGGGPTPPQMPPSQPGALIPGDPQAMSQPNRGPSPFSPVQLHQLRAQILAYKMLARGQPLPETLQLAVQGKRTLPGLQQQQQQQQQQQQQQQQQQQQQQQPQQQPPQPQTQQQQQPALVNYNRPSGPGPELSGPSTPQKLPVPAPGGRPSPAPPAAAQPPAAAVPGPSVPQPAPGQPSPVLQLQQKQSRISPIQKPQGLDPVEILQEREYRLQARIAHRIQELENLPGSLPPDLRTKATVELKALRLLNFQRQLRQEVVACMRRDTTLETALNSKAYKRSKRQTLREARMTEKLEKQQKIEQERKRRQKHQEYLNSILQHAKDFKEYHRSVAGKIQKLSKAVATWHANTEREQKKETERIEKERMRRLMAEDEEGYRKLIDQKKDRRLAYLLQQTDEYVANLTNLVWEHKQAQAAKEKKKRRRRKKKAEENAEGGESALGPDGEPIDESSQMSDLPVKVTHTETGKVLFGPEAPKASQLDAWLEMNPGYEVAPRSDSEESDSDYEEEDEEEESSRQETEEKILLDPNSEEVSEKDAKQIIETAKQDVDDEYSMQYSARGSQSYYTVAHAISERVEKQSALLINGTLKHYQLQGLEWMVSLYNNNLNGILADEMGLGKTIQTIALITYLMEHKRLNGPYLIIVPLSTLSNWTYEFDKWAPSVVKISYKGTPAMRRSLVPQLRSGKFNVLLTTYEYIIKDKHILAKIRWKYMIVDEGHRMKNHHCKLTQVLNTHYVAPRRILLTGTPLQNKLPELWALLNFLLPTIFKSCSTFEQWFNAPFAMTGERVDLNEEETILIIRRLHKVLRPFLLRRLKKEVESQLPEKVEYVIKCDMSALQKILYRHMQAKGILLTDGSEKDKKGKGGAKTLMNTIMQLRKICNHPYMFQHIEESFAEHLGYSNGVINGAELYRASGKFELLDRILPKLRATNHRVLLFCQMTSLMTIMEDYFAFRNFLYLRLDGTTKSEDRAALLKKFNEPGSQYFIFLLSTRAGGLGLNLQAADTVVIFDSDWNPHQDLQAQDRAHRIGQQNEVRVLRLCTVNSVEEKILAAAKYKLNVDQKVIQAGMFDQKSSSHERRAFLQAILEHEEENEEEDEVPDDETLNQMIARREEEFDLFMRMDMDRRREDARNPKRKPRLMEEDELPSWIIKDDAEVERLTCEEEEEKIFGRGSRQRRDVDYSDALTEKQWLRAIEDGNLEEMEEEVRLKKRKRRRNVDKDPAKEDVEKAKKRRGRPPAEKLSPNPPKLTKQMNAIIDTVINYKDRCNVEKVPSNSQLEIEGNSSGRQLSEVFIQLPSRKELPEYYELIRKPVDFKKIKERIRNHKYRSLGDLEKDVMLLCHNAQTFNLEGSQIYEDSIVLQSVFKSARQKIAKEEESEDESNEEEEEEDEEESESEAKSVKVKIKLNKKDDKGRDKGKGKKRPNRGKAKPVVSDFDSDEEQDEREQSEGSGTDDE

Compound | Dmax [1] [%] | DC50 ([1]; A549 cells) [nM] | Dmax [2] [%] | DC50 [2] [nM] | Dmax ([3]; 24 h) [%] | DC50 ([3]; MV4-11 cells, 24 h) [nM] | Selectivity in MV411 ([3]; MV4-11 cells) | SMARCA2 MSD MV411 degradation 24 h: average Dmax % ([3]; MV4-11 cells, 24 h) | SMARCA2 MSD A549 degradation 24 h: Average Dmax % ([1]; A549 cells)
C#Cc1ccc(CNC(=O)[C@@H]2C[C@@H](O)CN2C(=O)[C@@H](NC(=O)N2CCN(CC3CCN([C@H]4CC[C@H](N5CCN6c7cc(-c8ccccc8O)nnc7NC[C@H]6C5)CC4)CC3)CC2)C(C)(C)C)cc1 [I-217] | 70 to 90 | > 100 | < 50 | > 100 | 50 to 70 | 10 to 100 | C (C (10-100 fold)) |  | 
C#Cc1ccc(CNC(=O)[C@@H]2C[C@@H](O)CN2C(=O)[C@@H](NC(=O)N2CCN(C[C@H]3CC[C@@H](N4CCc5[nH]c6nnc(-c7ccccc7O)cc6c5[C@H]4C)CC3)CC2)C(C)(C)C)cc1 [I-199] | > 90 | > 100 | < 50 | > 100 | 50 to 70 | 10 to 100 | C (C (10-100 fold)) |  | 
C#Cc1ccc(CNC(=O)[C@@H]2C[C@@H](O)CN2C(=O)[C@@H](NC(=O)[C@H]2CC3(C2)C[C@H](N2CCC(N4CCC(N5CCN6c7cc(-c8ccccc8O)nnc7NC[C@H]6C5)CC4)CC2)C3)C(C)(C)C)c(OC)c1 (single isomer, unassigned) [I-231] | > 90 | 50 to 100 | 50 to 70 | > 100 | > 90 | 1 to 10 | C (C (10-100 fold)) |  | 
C#Cc1ccc(CNC(=O)[C@@H]2C[C@@H](O)CN2C(=O)[C@@H](NC(=O)[C@H]2CC[C@@H](CN3CCC(c4cnc(N5CCN6c7cc(-c8ccccc8O)nnc7NC[C@H]6C5)nc4)CC3)CC2)C(C)(C)C)cc1 [I-293] | > 90 | 10 to 50 | 50 to 70 | > 100 | 70 to 90 | 1 to 10 | B (B (>100-500 fold)) |  | 
C#Cc1ccc(CNC(=O)[C@@H]2C[C@@H](O)CN2C(=O)[C@@H](NC(=O)N2CCN(CC3CCN([C@H]4CC[C@@H](N5CCN6c7cc(-c8ccccc8O)nnc7NC[C@H]6C5)CC4)CC3)CC2)C(C)(C)C)cc1 [I-216] | 70 to 90 | > 100 | < 50 | > 100 | < 50 | > 100 | C (C (10-100 fold)) |  | 

Now from value to molecule:

Dmax [1] [%] | DC50 ([1]; A549 cells) [nM] | Dmax [2] [%] | DC50 [2] [nM] | Dmax ([3]; 24 h) [%] | DC50 ([3]; MV4-11 cells, 24 h) [nM] | Selectivity in MV411 ([3]; MV4-11 cells) | SMARCA2 MSD MV411 degradation 24 h: average Dmax % ([3]; MV4-11 cells, 24 h) | SMARCA2 MSD A549 degradation 24 h: Average Dmax % ([1]; A549 cells) | Compound
> 90 | < 10 | 70 to 90 | 10 to 100 | > 90 | 1 to 10 | C (C (10-100 fold)) |  |  | C#Cc1ccc(CNC(=O)[C@@H]2C[C@@H](O)CN2C(=O)[C@@H](NC(=O)N2CC3(CC(N4CCC(c5cnc(N6CCc7[nH]c8nnc(-c9ccccc9O)cc8c7[C@H]6C)nc5)CC4)C3)C2)C(C)(C)CCO)cc1 [I-288]
< 50 | > 100 | < 50 | > 100 | < 50 | > 100 | C (C (10-100 fold)) |  |  | C#Cc1ccc(CNC(=O)[C@@H]2C[C@@H](O)CN2C(=O)[C@@H](NC(=O)N2CC3(CC(N4CCC(c5cnc(N6CCc7[nH]c8nnc(-c9ccccc9O)cc8c7[C@H]6C)nc5)CC4)C3)C2)C(C)(C)CCN2CCN[C@@H](C(=O)O)C2)cc1 [I-342]
70 to 90 | < 10 | > 90 | 1 to 10 | > 90 | < 1 | D (D (<10 fold)) |  |  | Cc1ncsc1-c1ccc(CNC(=O)[C@@H]2C[C@@H](O)CN2C(=O)C(c2cc(N3CC4(CCC(N5CCC(c6cnc(N7CCc8[nH]c9nnc(-c%10ccccc%10O)cc9c8[C@H]7C)nc6)CC5)CC4)C3)no2)C(C)C)cc1 (single isomer, unassigned) [I-14]
70 to 90 | > 100 | 50 to 70 | > 100 | 70 to 90 | 1 to 10 | A (A (>500 fold)) |  |  | Cc1ncsc1-c1ccc(CNC(=O)[C@@H]2C[C@@H](O)CN2C(=O)[C@@H](NC(=O)[C@H]2CC3(C2)C[C@H](N2CCC(c4ccnc(N5CCN6c7cc(-c8ccccc8O)nnc7NC[C@@H]6C5)n4)CC2)C3)C(C)(C)C)cc1 (single isomer, unassigned) [I-3]
> 90 | 50 to 100 |  |  |  | 1 to 10 |  | B (B (>70-90% degradation)) |  | C#Cc1ccc(CNC(=O)[C@@H]2C[C@@H](O)CN2C(=O)[C@@H](NC(=O)[C@H]2CCC3(CC2)C[C@H](N2CCC(c4cnc(N5CCN6c7cc(-c8cccc(F)c8O)nnc7NC[C@H]6C5)nc4)CC2)C3)C(C)(C)C)cc1 (single isomer, unassigned) [I-157]
> 90 | 50 to 100 |  |  | 50 to 70 | 10 to 100 |  |  |  | Cc1ncsc1-c1ccc(CNC(=O)[C@@H]2C[C@@H](O)CN2C(=O)[C@@H](NC(=O)[C@H]2CCC3(CC2)C[C@H](N2CCN(c4cnc(N5CCc6[nH]c7nnc(-c8ccccc8O)cc7c6[C@H]5C)nc4)CC2)C3)C(C)(C)C)cc1 (single isomer, unassigned) [I-112]
 | > 100 |  |  | 50 to 70 | 10 to 100 |  |  | A (A (>90% degradation)) | C#Cc1ccc(CNC(=O)[C@@H]2C[C@@H](O)CN2C(=O)[C@@H](NC(=O)[C@H]2CCC3(CC2)C[C@H](N2CCC(c4cnc(N5CCN6c7cc(-c8cccc(Cl)c8O)nnc7NC[C@H]6C5)nc4)CC2)C3)C(C)(C)C)cc1 (single isomer, unassigned) [I-105]
